Target: T1, Bcl-2 protein (Recombinant Human Bcl-2 Protein) (Homo sapiens, UniProt P10415)
T1 construct: purchased Novus NBP2-34889
Experiment: Binding evaluation of mixture library compounds to Bcl-2 using AS-MS (affinity selection mass spectrometry)
Settings: for ASMS ratio (%) n = 1 / ASMS ratio (%) n = 2: ASMS Ratio(%)=(A−C)/B×100; for ASMS ratio (%) n = 1: replicate n = 1; for ASMS ratio (%) n = 2: replicate n = 2
Protocol: For one well of MICROPLATE, 96-well, PP, V-BOTTOM (Greiner bio-one, 651201), DMSO solutions of 12 mixtures (prepared to approximately 0.58 mM based on calculations from the average molecular weight of each mixture), in each of which 100 compounds are mixed, were each dispensed, and dispensed into a total of 12 wells, where the 12 mixtures are mixAI-B4J-01, mixAI-B1M-01, mixAI-B1K-01, mixAI-B10-01, mixAI-B1A-01, mixAI-B3A-01, mixAI-B21-01, mixAI-B2L-01, mixAI-B2N-01, mixAI-B2A-01, mixAI-B2Q-01, and mixAI-B2R-01 listed in [Table AI-03-B4J-01], [Table AI-03-B1M-01], [Table AI-03-B1K-01], [Table AI-03-B10-01], [Table AI-03-B1A-01], [Table AI-03-B3A-01], [Table AI-03-B2I-01], [Table AI-03-B2L-01], [Table AI-03-B2N-01], [Table AI-03-B2A-01], [Table AI-03-B2Q-01], and [AI-03-B2R-01] shown in Example 6. Using the LABCYTE ECHO® 555 Acoustic Dispensing System (BECKMAN COULTER), 70 nL was collected from each of the 12 wells into one arbitrary well to prepare a sample solution with 1200 compounds in the mixed state (the presence of 1152 compounds had already been identified when prepared in Example 6-5-3). (In the present specification, the mixture collected in this one well is referred to as one library.) Furthermore, a Bcl-2 protein (Novus, NBP2-34889, Recombinant Human Bcl-2 Protein, Lot E60145051) (19.2 μL) that had been prepared in advance to be 20.9 μM using a Tris-HCl buffer (25 mM Tris-HCl pH 7.4, 150 mM NaCl, 0.025% Tween-20, 1 mM DTT) was added to the well in which 1200 compounds (the presence of 1152 compounds had already been identified when prepared in Example 6-5-3) were dispensed (final compound concentration […], final Bcl-2 concentration 20 μM), and the mixture was incubated in the dark at 23° C. for 1 hour. Next, using the 96-well MacroSpin column, P-2 Material (Harvard, 74-5655) that had been swollen, conditioning of the 96-well MacroSpin column was performed three times by centrifugation with 200 μL of an assay buffer (25 mM Tris-HCl pH 7.4, 150 mM NaCl, 0.025% Tween-20, 1 mM DTT), 2000 XG, 4° C., 2 min. Subsequently, 20 μL of the sample after incubation was added to the 96-well MacroSpin column, P-2 Material, that had been conditioned, and SEC treatment was performed by centrifugation at 2000×G for 2 minutes. To the liquid passed from the SEC, 32 μL of a 1:1 mixed solution of acetonitrile and methanol (LC/MS grade, Fujifilm Wako Pure Chemical Corporation) was added, the mixture was centrifuged at 1800×G, 4° C., 5 min, and the supernatant was used as analysis sample ASMS (A), while a sample that had been prepared by the same operations at 1200 compounds/well and to which only the Tris-HCl buffer had been added without the Bcl-2 protein was incubated under the same conditions, no 96-well MacroSpin column treatment was performed, the same organic solvent was added, and the supernatant solution obtained by centrifugation was used as STD (B). Next, a sample that had been prepared by the same operations at 1200 compounds/well and to which only the Tris-HCl buffer had been added without the Bcl-2 protein was incubated under the same conditions, the same 96-well MacroSpin column treatment was performed, the same organic solvent was added, and the supernatant solution obtained by centrifugation was used as BK (C), and measured by reversed phase LC/MS.
Then, analysis of the 1200 compounds was carried out for samples A, B, and C with TraceFinder 5.1 (Thermo Fisher Scientific) and CHANCE Software (in-house), and the ASMS Ratio (%) was calculated according to the following calculation formula.
Calculation formula: ASMS Ratio(%)=(A−C)/B×100

[1] = AS-MS on the mixture of 1200 library compounds
[2] = AS-MS, mixture of 1200 compounds, Bcl-2

T1 sequence (P10415 whole entry): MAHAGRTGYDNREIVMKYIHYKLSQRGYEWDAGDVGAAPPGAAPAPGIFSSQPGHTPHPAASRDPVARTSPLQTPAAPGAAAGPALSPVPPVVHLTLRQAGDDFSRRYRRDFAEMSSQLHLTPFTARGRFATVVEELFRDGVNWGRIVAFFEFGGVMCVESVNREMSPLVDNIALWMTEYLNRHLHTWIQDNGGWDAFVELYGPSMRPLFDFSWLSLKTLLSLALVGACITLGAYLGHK

Compound: CCOc1cccc(-c2ccc(C(=O)N3CCN(c4ccc(C(=O)N(C)CC56CC7CC(CC(C7)C5)C6)cc4)CC3)c3ccccc23)c1 [B3A035-01, N-(1-Adamantylmethyl)-4-[4-[4-(3-ethoxyphenyl)naphthalene-1-carbonyl]piperazin-1-yl]-N-methylbenzamide]
- ASMS ratio (%) n = 1 [1]: 9.7%
- ASMS ratio (%) n = 2 [1]: 4.4%

Compound: CCOc1cncc(-c2ccc(CN3CCN(c4ccc(C(=O)N(CC)CC)cc4)CC3)cc2F)c1 [B4J052-01]
- ASMS ratio (%) n = 1 [1]: 0.5%
- ASMS ratio (%) n = 2 [1]: −1.5%

Compound: CCOc1cccc(-c2csc(C(=O)N3CCN(c4ccc(C(=O)NCC(F)(F)F)cc4)CC3)c2)c1 [B1K023-01, 4-[4-[4-(3-Ethoxyphenyl)thiophene-2-carbonyl]piperazin-1-yl]-N-(2,2,2-trifluoroethyl)benzamide]
- ASMS ratio (%) n = 1 [2]: 4.3%
- ASMS ratio (%) n = 2 [2]: 1.3%

Compound: 6-[4-[[2-(3-Ethoxyphenyl)phenyl]methyl]piperazin-1-yl]-N-propylpyridazine-3-carboxamide [B1M042-01]
- ASMS ratio (%) n = 1 [2]: 0.0%
- ASMS ratio (%) n = 2 [2]: 0.0%

Compound: 4-[4-[3-(3-Ethoxyphenyl)-5-(trifluoromethyl)benzoyl]piperazin-1-yl]-N-propylbenzamide [B1M092-01]
- ASMS ratio (%) n = 2 [1]: 0.0%

Compound: CCOc1cncc(-c2cc(CN3CCN(c4ccc(C(=O)NS(=O)(=O)c5ccc(NCCSc6ccccc6)c(C(F)(F)F)c5)nn4)CC3)cc(OC(F)(F)F)c2)c1 [B2R090-01, 6-[4-[[3-(5-Ethoxypyridin-3-yl)-5-(trifluoromethoxy)phenyl]methyl]piperazin-1-yl]-N-[4-(2-phenylsulfanylethylamino)-3-(trifluoromethyl)phenyl]sulfonylpyridazine-3-carboxamide]
- ASMS ratio (%) (n = 1): 22.4%
- ASMS ratio (%) (n = 2): 5.3%

Compound: CCOc1cncc(-c2ccc(CN3CCN(c4ccc(C(=O)NS(=O)(=O)CCC(F)(F)F)nn4)CC3)c3ccccc23)c1 [B2N092-01]
- ASMS ratio (%) (n = 1): 0.0%
- ASMS ratio (%) (n = 2): 0.0%

Compound: CCOc1cncc(-c2ccccc2CN2CCN(c3ccc(C(=O)NS(=O)(=O)C(C)(C)C)cc3)CC2)c1 [B2L046-01, N-tert-Butylsulfonyl-4-[4-[[2-(5-ethoxypyridin-3-yl)phenyl]methyl]piperazin-1-yl]benzamide]
- ASMS ratio (%) (n = 1): 0.0%
- ASMS ratio (%) (n = 2): 0.0%

Compound: CCOc1cncc(-c2cc(CN3CCN(c4ccc(C(=O)NS(=O)(=O)CC56CC7CC(CC(C7)C5)C6)nn4)CC3)cc(OC(F)(F)F)c2)c1 [B2A090-01, N-(1-Adamantylmethylsulfonyl)-6-[4-[[3-(5-ethoxypyridin-3-yl)-5-(trifluoromethoxy)phenyl]methyl]piperazin-1-yl]pyridazine-3-carboxamide]
- ASMS ratio (%) n = 1 (AS-MS, mixture library, Bcl-2): 22.0%
- ASMS ratio (%) n = 2 (AS-MS, mixture library, Bcl-2): 4.7%

Compound: CCOc1cccc(-c2cc(C(=O)N3CCN(c4ccc(C(=O)Nc5ccc(OC)cc5)nn4)CC3)cc(C(C)(C)C)c2)c1 [B1O015-01, 6-[4-[3-tert-Butyl-5-(3-ethoxyphenyl)benzoyl]piperazin-1-yl]-N-(4-methoxyphenyl)pyridazine-3-carboxamide]
- ASMS ratio (%) n = 1 [1]: 6.0%
- ASMS ratio (%) n = 2 [1]: −2.7%

Compound: CCOc1cncc(C#Cc2cncc(C(=O)N3CCN(c4ccc(C(=O)N(CC)CC)cc4)CC3)c2)c1 [B4J032-01, 4-[4-[5-[2-(5-Ethoxypyridin-3-yl)ethynyl]pyridine-3-carbonyl]piperazin-1-yl]-N,N-diethylbenzamide]
- ASMS ratio (%) n = 1 [1]: −7.2%
- ASMS ratio (%) n = 2 [1]: 1.5%

Compound: CCOc1cccc(-c2cc(CN3CCN(c4ccc(C(=O)Nc5ccc(OC)cc5)nn4)CC3)cc(C(F)(F)F)c2)c1 [B1O087-01]
- ASMS ratio (%) n = 1 [1]: 2.2%
- ASMS ratio (%) n = 2 [1]: −0.5%

Compound: CCOc1cccc(-c2cnn(-c3cc(C(=O)N4CCN(c5ccc(C(=O)NCC67CC8CC(CC(C8)C6)C7)cc5)CC4)cc(C(F)(F)F)c3)c2)c1 [B1A043-01, N-(1-Adamantylmethyl)-4-[4-[3-[4-(3-ethoxyphenyl)pyrazol-1-yl]-5-(trifluoromethyl)benzoyl]piperazin-1-yl]benzamide]
- ASMS ratio (%) n = 1 [2]: 3.8%
- ASMS ratio (%) n = 2 [2]: −2.9%

Compound: CCOc1cccc(-c2ccccc2CN2CCN(c3ccc(C(=O)NCC45CC6CC(CC(C6)C4)C5)cc3)CC2)c1 [B1A045-01, N-(1-Adamantylmethyl)-4-[4-[[2-(3-ethoxyphenyl)phenyl]methyl]piperazin-1-yl]benzamide]
- ASMS ratio (%) n = 1 [2]: 1.1%
- ASMS ratio (%) n = 2 [2]: −2.2%

Compound: CCOc1cccc(-c2csc(CN3CCN(c4ccc(C(=O)N(C)CC56CC7CC(CC(C7)C5)C6)cc4)CC3)c2)c1 [B3A067-01, N-(1-Adamantylmethyl)-4-[4-[[4-(3-ethoxyphenyl)thiophen-2-yl]methyl]piperazin-1-yl]-N-methylbenzamide]
- ASMS ratio (%) n = 1 [1]: −7.3%
- ASMS ratio (%) n = 2 [1]: 4.0%

Compound: CCOc1cncc(-c2ccc(CN3CCN(c4ccc(C(=O)Nc5ccc(OC)cc5)cc4)CC3)c3ccccc23)c1 [B1O066-01, 4-[4-[[4-(5-Ethoxypyridin-3-yl)naphthalen-1-yl]methyl]piperazin-1-yl]-N-(4-methoxyphenyl)benzamide]
- ASMS ratio (%) n = 1 [1]: 12.1%
- ASMS ratio (%) n = 2 [1]: 2.7%

Compound: CCOc1cccc(-c2ccc(C(=O)N3CCN(c4ccc(C(=O)NS(=O)(=O)CCC(F)(F)F)nn4)CC3)cc2C)c1 [B2N003-01, 6-[4-[4-(3-Ethoxyphenyl)-3-methylbenzoyl]piperazin-1-yl]-N-(3,3,3-trifluoropropylsulfonyl)pyridazine-3-carboxamide]
- ASMS ratio (%) (n = 1): 0.0%
- ASMS ratio (%) (n = 2): 0.0%

Compound: CCOc1cncc(C#Cc2ccccc2C(=O)N2CCN(c3ccc(C(=O)NS(=O)(=O)C(C)(C)C)nn3)CC2)c1 [B2L008-01, N-tert-Butylsulfonyl-6-[4-[2-[2-(5-ethoxypyridin-3-yl)ethynyl]benzoyl]piperazin-1-yl]pyridazine-3-carboxamide]
- ASMS ratio (%) (n = 1): 0.0%
- ASMS ratio (%) (n = 2): 0.0%

Compound: CCOc1cncc(-c2ccc(CN3CCN(c4ccc(C(=O)Nc5ccc(OC)cc5)nn4)CC3)c(OC)c2)c1 [B1O080-01, 6-[4-[[4-(5-Ethoxypyridin-3-yl)-2-methoxyphenyl]methyl]piperazin-1-yl]-N-(4-methoxyphenyl)pyridazine-3-carboxamide]
- ASMS ratio (%) n = 1 [1]: 1.4%
- ASMS ratio (%) n = 2 [1]: 3.4%

Compound: 6-[4-[[4-(3-Ethoxyphenyl)naphthalen-1-yl]methyl]piperazin-1-yl]-N-propylpyridazine-3-carboxamide [B1M045-01]
- ASMS ratio (%) n = 1 [2]: 2.5%
- ASMS ratio (%) n = 2 [2]: −2.3%
